The record followed here is patent US10934310B2, “Inhibitors of Bruton's tyrosine kinase and method of their use” (JANSSEN PHARMACEUTICA NV, priority 2015, dated 2021).

The test deals with unphosphorylated-BTK kinase domain (UP-BTK), GST-tagged human BTK (389-659aa) (Homo sapiens (Human), UniProt Q06187). The test is described as follows: BTK Kinase Lanthascreen Binding Assay. As to conditions: compound, 50 nM Tracer 236, 2 nM anti-GST antibody, 60 minutes; pIC50 = negative log of the IC50 in molar. On the procedure: BTK Kinase Lanthascreen Binding Assay:
A BTK kinase lanthascreen binding assay monitors compound binding to unphosphorylated-BTK kinase domain (UP-BTK), by competing with a fluorescent labeled tracer. […] Data were analyzed using Xlfit™ version 5.3 from ID Business Solutions (Guildford), Microsoft Excel add-in. pIC50 refers to the negative log of the IC50 in molar.

unphosphorylated-BTK kinase domain (UP-BTK), GST-tagged human BTK (389-659aa), sequence (Q06187 389-659): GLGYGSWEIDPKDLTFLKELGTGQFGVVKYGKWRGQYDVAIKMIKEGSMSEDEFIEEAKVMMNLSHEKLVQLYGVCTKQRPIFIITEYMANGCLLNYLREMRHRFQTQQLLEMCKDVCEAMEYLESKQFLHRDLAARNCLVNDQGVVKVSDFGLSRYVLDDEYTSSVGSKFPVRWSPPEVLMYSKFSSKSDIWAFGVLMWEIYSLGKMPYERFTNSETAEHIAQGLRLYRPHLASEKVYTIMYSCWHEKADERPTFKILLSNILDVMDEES

Consider `Cc1cc(Oc2ccccc2)ccc1N1C(=O)Nc2c(C(=O)N[C@@]34C[C@@H]5C[C@@H](C[C@@](O)(C5)C3)C4)sc3nccc1c23` [Example 30, N-((1r,3s,5R,7S)-3-Hydroxyadamantan-1-yl)-5-(2-methyl-4-phenoxyphenyl)-4-oxo-4,5-dihydro-3H-1-thia-3,5,8-triazaacenaphthylene-2-carboxamide], for which the “BTK_I_binding pIC50” value was 6.36.
On to `CNC1CCCCC1NC(=O)c1sc2nccc3c2c1NC(=O)N3c1ccc(Oc2ccccc2)cc1C` (centres unmarked) [Example 31, 5-(2-Methyl-4-phenoxyphenyl)-N-(2-(methylamino)cyclohexyl)-4-oxo-4,5-dihydro-3H-1-thia-3,5,8-triazaacenaphthylene-2-carboxamide], for which the “BTK_I_binding pIC50” value was determined as 6.66.
With `Cc1cc(Oc2ccccc2)ccc1N1C(=O)Nc2c(C(=O)N[C@H]3CCC[C@@H]3N(C)C)sc3nccc1c23` [Example 32, N-((1S,2S)-2-(Dimethylamino)cyclopentyl)-5-(2-methyl-4-phenoxyphenyl)-4-oxo-4,5-dihydro-3H-1-thia-3,5,8-triazaacenaphthylene-2-carboxamide], the “BTK_I_binding pIC50” value amounted to 7.12.
The result for `CC(=O)N[C@H]1CCCC[C@H]1NC(=O)c1sc2nccc3c2c1NC(=O)N3c1ccc(Oc2ccccc2)cc1C` [Example 33, N-((1R,2S)-2-Acetamidocyclohexyl)-5-(2-methyl-4-phenoxyphenyl)-4-oxo-4,5-dihydro-3H-1-thia-3,5,8-triazaacenaphthylene-2-carboxamide] reads 6.98.
To `CCC(=O)N[C@H]1CCC[C@H]1NC(=O)c1sc2nccc3c2c1NC(=O)N3c1ccc(Oc2ccccc2)cc1C` [Example 34, 5-(2-Methyl-4-phenoxyphenyl)-4-oxo-N-((1R,2S)-2-propionamidocyclopentyl)-4,5-dihydro-3H-1-thia-3,5,8-triazaacenaphthylene-2-carboxamide] belongs 6.91; to `CCC(=O)N[C@H]1CCCC[C@H]1NC(=O)c1sc2nccc3c2c1NC(=O)N3c1ccc(Oc2ccccc2)cc1C` [Example 35, 5-(2-Methyl-4-phenoxyphenyl)-4-oxo-N-((1R,2S)-2-propionamidocyclohexyl)-4,5-dihydro-3H-1-thia-3,5,8-triazaacenaphthylene-2-carboxamide], 6.87; to `CC(=O)N[C@H]1CCC[C@H]1NC(=O)c1sc2nccc3c2c1NC(=O)N3c1ccc(Oc2ccccc2)cc1C` [Example 37, N-((1R,2S)-2-Acetamidocyclopentyl)-5-(2-methyl-4-phenoxyphenyl)-4-oxo-4,5-dihydro-3H-1-thia-3,5,8-triazaacenaphthylene-2-carboxamide], 6.68.
The result for `Cc1cc(Oc2ccccc2)ccc1N1C(=O)Nc2c(C(=O)N[C@@H]3CCCC[C@H]3N)sc3nccc1c23` [Example 38, N-((1R,2R)-2-Aminocyclohexyl)-5-(2-methyl-4-phenoxyphenyl)-4-oxo-4,5-dihydro-3H-1-thia-3,5,8-triazaacenaphthylene-2-carboxamide] reads 6.68; that for `Cc1cc(Oc2ccccc2)ccc1N1C(=O)Nc2c(C(=O)N[C@H]3CCC[C@H]3O)sc3nccc1c23` [Example 39, N-((1S,2R)-2-Hydroxycyclopentyl)-5-(2-methyl-4-phenoxyphenyl)-4-oxo-4,5-dihydro-3H-1-thia-3,5,8-triazaacenaphthylene-2-carboxamide], 6.51; that for `CC(=O)N[C@H]1CCC[C@@H]1NC(=O)c1sc2nccc3c2c1NC(=O)N3c1ccc(Oc2ccccc2)cc1C` [Example 40, N-((1S,2S)-2-Acetamidocyclopentyl)-5-(2-methyl-4-phenoxyphenyl)-4-oxo-4,5-dihydro-3H-1-thia-3,5,8-triazaacenaphthylene-2-carboxamide], 6.40.
`Cc1cc(Oc2ccccc2)ccc1N1C(=O)Nc2c(C(=O)N[C@H]3CCC[C@@H]3N)sc3nccc1c23` [Example 41, N-((1S,2S)-2-Aminocyclopentyl)-5-(2-methyl-4-phenoxyphenyl)-4-oxo-4,5-dihydro-3H-1-thia-3,5,8-triazaacenaphthylene-2-carboxamide]: the “BTK_I_binding pIC50” value turned out to be 6.37.
The result for `CCC(=O)N[C@@H]1CCCC[C@@H]1NC(=O)c1sc2nccc3c2c1NC(=O)N3c1ccc(Oc2ccccc2)cc1C` [Example 42, 5-(2-Methyl-4-phenoxyphenyl)-4-oxo-N-((1S,2R)-2-propionamidocyclohexyl)-4,5-dihydro-3H-1-thia-3,5,8-triazaacenaphthylene-2-carboxamide] reads 6.24.
Turning to `Cc1cc(Oc2ccccc2)ccc1N1C(=O)Nc2c(C(=O)N[C@@H]3CCCC[C@H]3N(C)C)sc3nccc1c23` [Example 43, N-((1R,2R)-2-(Dimethylamino)cyclohexyl)-5-(2-methyl-4-phenoxyphenyl)-4-oxo-4,5-dihydro-3H-1-thia-3,5,8-triazaacenaphthylene-2-carboxamide], the “BTK_I_binding pIC50” value worked out at 6.23.
The result for `CC(=O)N[C@@H]1CCCC[C@@H]1NC(=O)c1sc2nccc3c2c1NC(=O)N3c1ccc(Oc2ccccc2)cc1C` [Example 44, N-((1S,2R)-2-Acetamidocyclohexyl)-5-(2-methyl-4-phenoxyphenyl)-4-oxo-4,5-dihydro-3H-1-thia-3,5,8-triazaacenaphthylene-2-carboxamide] reads 6.17; that for `CCC(=O)N[C@H]1CCC[C@@H]1NC(=O)c1sc2nccc3c2c1NC(=O)N3c1ccc(Oc2ccccc2)cc1C` [Example 45, 5-(2-Methyl-4-phenoxyphenyl)-4-oxo-N-((1S,2S)-2-propionamidocyclopentyl)-4,5-dihydro-3H-1-thia-3,5,8-triazaacenaphthylene-2-carboxamide], 6.14.
The result for `CN[C@H]1CCC[C@@H]1NC(=O)c1sc2nccc3c2c1NC(=O)N3c1ccc(Oc2ccccc2)cc1C` [Example 46, 5-(2-Methyl-4-phenoxyphenyl)-N-((1S,2S)-2-(methylamino)cyclopentyl)-4-oxo-4,5-dihydro-3H-1-thia-3,5,8-triazaacenaphthylene-2-carboxamide] reads 6.14; that for `CC(=O)N[C@@H]1CCCC[C@H]1NC(=O)c1sc2nccc3c2c1NC(=O)N3c1ccc(Oc2ccccc2)cc1C` [Example 47, N-((1R,2R)-2-Acetamidocyclohexyl)-5-(2-methyl-4-phenoxyphenyl)-4-oxo-4,5-dihydro-3H-1-thia-3,5,8-triazaacenaphthylene-2-carboxamide], 6.12.
The result for `Cc1cc(Oc2ccccc2)ccc1N1C(=O)Nc2c(C(=O)N[C@H]3CCCC[C@H]3N(C)C)sc3nccc1c23` [Example 48, N-((1S,2R)-2-(Dimethylamino)cyclohexyl)-5-(2-methyl-4-phenoxyphenyl)-4-oxo-4,5-dihydro-3H-1-thia-3,5,8-triazaacenaphthylene-2-carboxamide] reads 6.12.
Consider `Cc1cc(Oc2ccccc2)ccc1N1C(=O)Nc2c(C(=O)N[C@H]3CCCC[C@H]3N)sc3nccc1c23` [Example 49, N-((1S,2R)-2-Aminocyclohexyl)-5-(2-methyl-4-phenoxyphenyl)-4-oxo-4,5-dihydro-3H-1-thia-3,5,8-triazaacenaphthylene-2-carboxamide], for which the “BTK_I_binding pIC50” value was 6.12.
To `CN[C@@H]1CCCC[C@@H]1NC(=O)c1sc2nccc3c2c1NC(=O)N3c1ccc(Oc2ccccc2)cc1C` [Example 50, 5-(2-Methyl-4-phenoxyphenyl)-N-((1S,2R)-2-(methylamino)cyclohexyl)-4-oxo-4,5-dihydro-3H-1-thia-3,5,8-triazaacenaphthylene-2-carboxamide] belongs 6.07; to `Cc1cc(Oc2ccccc2)ccc1N1C(=O)Nc2c(C(=O)N[C@H]3CCC[C@H]3N(C)C)sc3nccc1c23` [Example 51, N-((1S,2R)-2-(Dimethylamino)cyclopentyl)-5-(2-methyl-4-phenoxyphenyl)-4-oxo-4,5-dihydro-3H-1-thia-3,5,8-triazaacenaphthylene-2-carboxamide], 6.01; to `CCC(=O)N[C@@H]1CCCC[C@H]1NC(=O)c1sc2nccc3c2c1NC(=O)N3c1ccc(Oc2ccccc2)cc1C` [Example 52, 5-(2-Methyl-4-phenoxyphenyl)-4-oxo-N-((1R,2R)-2-propionamidocyclohexyl)-4,5-dihydro-3H-1-thia-3,5,8-triazaacenaphthylene-2-carboxamide], 6.01.
`Cc1cc(Oc2ccccc2)ccc1N1C(=O)Nc2c(C(=O)N[C@H]3CCC[C@H]3N)sc3nccc1c23` [Example 53, N-((1S,2R)-2-Aminocyclopentyl)-5-(2-methyl-4-phenoxyphenyl)-4-oxo-4,5-dihydro-3H-1-thia-3,5,8-triazaacenaphthylene-2-carboxamide]: the “BTK_I_binding pIC50” value was 5.95.
To `Cc1cc(Oc2ccccc2)ccc1N1C(=O)Nc2c(C(=O)N[C@H]3CCCC[C@@H]3NC=O)sc3nccc1c23` [Example 54, N-((1S,2S)-2-Formamidocyclohexyl)-5-(2-methyl-4-phenoxyphenyl)-4-oxo-4,5-dihydro-3H-1-thia-3,5,8-triazaacenaphthylene-2-carboxamide] belongs 5.90; to `CC(=O)N[C@H]1CCCC[C@@H]1NC(=O)c1sc2nccc3c2c1NC(=O)N3c1ccc(Oc2ccccc2)cc1C` [Example 55, N-((1S,2S)-2-Acetamidocyclohexyl)-5-(2-methyl-4-phenoxyphenyl)-4-oxo-4,5-dihydro-3H-1-thia-3,5,8-triazaacenaphthylene-2-carboxamide], 5.88.
The result for `CC(=O)N[C@@H]1CCC[C@@H]1NC(=O)c1sc2nccc3c2c1NC(=O)N3c1ccc(Oc2ccccc2)cc1C` [Example 57, N-((1S,2R)-2-Acetamidocyclopentyl)-5-(2-methyl-4-phenoxyphenyl)-4-oxo-4,5-dihydro-3H-1-thia-3,5,8-triazaacenaphthylene-2-carboxamide] reads 5.65.
